Key:
[1] = Incubation with GSH at pH 7.4; format: physicochemical; settings: pH 7.4, within 4 h of incubation
[2] = cited from earlier work

## COc1ccc2c(c1)CCCN2C(=O)CCl [Compound 11]
[1]
  corresponding GSH adduct produced: more than 50%

## N[C@@H](CCC(=O)N[C@@H](CS)C(=O)NCC(=O)O)C(=O)O [GSH, glutathione]
[2]
  pKa: 9.17

— PMC10719761 (Journal of the American Chemical Society, 2023)
